What was measured:
HCT116 cells = experiment: Whole cell cytotoxicity assay, Sulforhodamine B; assay type: cell-based; settings: Homo sapiens, HCT-116, HCT116, 96 hours incubation, SRB
Summary of the method: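 HCT116 cells (500/well) in DMEM/10% FBS/2 mM glutamine were preincubated 24 h, then exposed to compound for 96 h at 37 °C, 5% CO2, in duplicate. Cells were fixed with TCA and stained with sulforhodamine B (A570). GI50, TGI and LC50 were derived relative to a time-zero plate and an untreated control.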

[1] = target: T1, N-terminal His6-tagged recombinant human KDR, residues 790-end (Homo sapiens, UniProt P35968); experiment: KDR kinase inhibition assay (33P-ATP filter assay); assay type: biochemical
T1 construct: recombinant human KDR, residues 790-end; His6 (N); purchased Upstate USA Inc, 706 Forest Street, Charlottesville, Va
T1 sequence (P35968 790-1356 limits assumed): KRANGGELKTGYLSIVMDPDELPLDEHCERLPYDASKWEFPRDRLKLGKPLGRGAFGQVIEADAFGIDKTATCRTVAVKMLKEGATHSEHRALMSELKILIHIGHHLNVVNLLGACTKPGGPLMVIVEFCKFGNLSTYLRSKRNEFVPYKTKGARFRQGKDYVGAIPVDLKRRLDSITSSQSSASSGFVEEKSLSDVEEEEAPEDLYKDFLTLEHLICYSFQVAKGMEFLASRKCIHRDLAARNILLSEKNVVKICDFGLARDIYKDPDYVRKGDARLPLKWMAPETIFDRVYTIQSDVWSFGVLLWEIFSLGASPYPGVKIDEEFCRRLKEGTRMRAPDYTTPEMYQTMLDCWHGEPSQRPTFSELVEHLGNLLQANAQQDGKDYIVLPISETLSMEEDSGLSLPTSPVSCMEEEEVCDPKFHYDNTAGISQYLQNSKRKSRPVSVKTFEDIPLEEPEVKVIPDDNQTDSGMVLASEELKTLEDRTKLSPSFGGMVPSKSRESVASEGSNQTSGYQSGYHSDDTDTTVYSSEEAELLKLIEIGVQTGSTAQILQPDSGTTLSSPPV
Summary of the method: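 His6-tagged human KDR (residues 790-end, 5-10 mU) with 0.33 mg/mL myelin basic protein in 8 mM MOPS pH 7.0, 0.2 mM EDTA, 10 mM magnesium acetate and [γ-33P]ATP; 40 min at room temperature. Stopped with phosphoric acid, filter-bound 33P counted; inhibition relative to no-inhibitor controls.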

[2] = target: T2, N-terminal His-tagged human Src (Homo sapiens, UniProt P12931); experiment: Src kinase inhibition assay (33P-ATP filter assay); assay type: biochemical
T2 construct: His (N); purchased Upstate USA Inc, 706 Forest Street, Charlottesville, Va
T2 sequence (P12931 whole entry): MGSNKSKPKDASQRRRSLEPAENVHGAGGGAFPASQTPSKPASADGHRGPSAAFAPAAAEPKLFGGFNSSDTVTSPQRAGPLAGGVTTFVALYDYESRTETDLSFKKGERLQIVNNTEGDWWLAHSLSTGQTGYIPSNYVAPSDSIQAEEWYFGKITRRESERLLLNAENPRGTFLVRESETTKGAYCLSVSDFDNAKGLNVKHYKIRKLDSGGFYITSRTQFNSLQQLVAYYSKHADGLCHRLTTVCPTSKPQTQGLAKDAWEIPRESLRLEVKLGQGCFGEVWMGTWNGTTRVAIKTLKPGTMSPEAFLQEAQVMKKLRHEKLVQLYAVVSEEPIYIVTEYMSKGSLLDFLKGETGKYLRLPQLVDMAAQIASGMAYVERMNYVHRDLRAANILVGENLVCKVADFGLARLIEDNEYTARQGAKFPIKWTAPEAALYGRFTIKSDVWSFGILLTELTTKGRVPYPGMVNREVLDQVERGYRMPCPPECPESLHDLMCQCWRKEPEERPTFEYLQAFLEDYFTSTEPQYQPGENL

recombinant Aurora A = target: T3, recombinant Aurora A (Homo sapiens, UniProt O14965); experiment: Aurora A (Aurora 2) inhibition assay, Z'-Lyte kinase assay; assay type: biochemical; settings: ATP 10 μM, 1 h
T3 construct: purchased Upstate, Lake Placid, N.Y
T3 sequence (O14965 1-403): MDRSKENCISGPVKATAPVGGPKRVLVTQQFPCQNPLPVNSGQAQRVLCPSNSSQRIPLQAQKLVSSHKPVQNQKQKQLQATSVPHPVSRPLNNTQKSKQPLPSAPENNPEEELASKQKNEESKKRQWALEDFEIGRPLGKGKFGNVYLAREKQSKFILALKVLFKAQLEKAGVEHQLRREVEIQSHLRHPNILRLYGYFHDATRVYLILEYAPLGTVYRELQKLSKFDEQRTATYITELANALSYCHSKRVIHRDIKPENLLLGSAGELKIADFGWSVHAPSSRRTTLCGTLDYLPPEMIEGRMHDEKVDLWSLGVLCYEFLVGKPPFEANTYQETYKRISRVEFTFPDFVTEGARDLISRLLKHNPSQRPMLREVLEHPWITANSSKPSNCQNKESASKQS
Description: Compounds were tested for their potency against recombinant Aurora A (Upstate, Lake Placid, N.Y.) using the PanVera Z′-Lyte kinase assay kit—Ser/Thr 1 peptide (Invitrogen, Carlsbad, Calif.). Assays were carried out in kinase assay buffer (50 mM HEPES, pH 7.5, 10 mM MgCl2, 5 mM EGTA, 0.05% Brij-35, 2 mM DTT). Test compounds were initially dissolved in DMSO at 100× the highest tested concentration, then serially diluted to 4× test concentrations in kinase assay buffer. Next, Aurora A (final concentration 200-500 ng/mL), Z′-Lyte Ser/Thr 1 peptide (final concentration 2 μM) and ATP (final concentration 10 μM) were added according to the manufacturer's instructions. Assays were carried out in half-area 96-well white polystyrene assay plates (Corning, Corning, N.Y.) in a final volume of 20 μl. The reaction was allowed to proceed for 1 h at room temperature in the dark, at which point the development reagent and stop reagent were added according to the manufacturer's instructions. Coumarin (Ex. 400 nm, Em. 465 nm) and fluorescein (Ex. 400 nm, Em. 565 nm) fluorescence values were measured on a SpectraFluor Plus plate reader (Tecan, Durham, N.C.). The emission ratio (coumarin/fluorescein) was determined and used to calculate the percent phosphorylation for each well. Wells containing substrate but no kinase and wells containing a phosphopeptide control were used to set 0% and 100% phosphorylation values, respectively. Typically 20-40% of the substrate was phosphorylated in wells without inhibitor. Dose-response curves of relative Aurora A activity vs. inhibitor concentration were plotted with Grafit (Erithacus Software, Horley, Surrey, UK).

[3] = group with IC50 greater than 100 nM

Row | SMILES | GI50 (HCT116 cells; read-out: GI50 HCT116 cell growth) [nM] | IC50 ([1]; 40 minutes at room temperature) [nM] | IC50 ([2]; 40 minutes at room temperature) [nM] | IC50 (recombinant Aurora A; [3]) [nM] | IC50 (HCT116 cells; read-out: IC50 values in this assay (HCT116 cell growth)) [nM] | IC50 [1, 3] [nM] | IC50 [2, 3] [nM] | IC50 (recombinant Aurora A) [nM]
1 | Cc1cc(Nc2cc(N3CCN(C)CC3)nc(-c3ccc(F)cc3F)n2)n[nH]1 [Example 172, 2-(2,4-difluorophenyl)-N-(5-methyl-1H-pyrazol-3-yl)-6-(4-methylpiperazin-1-yl)pyrimidin-4-amine] | ≤ 1000 | ≤ 100 | ≤ 100 | ≤ 1000 | – | – | – | –
2 | Cc1cc(Nc2cc(NC3CCOCC3)nc(-c3cccc(Cl)c3)n2)n[nH]1 [Compound 23, 2-(3-chlorophenyl)-N^4-(5-methyl-1H-pyrazol-3-yl)-N^6-(tetrahydro-2H-pyran-4-yl)pyrimidine-4,6-diamine] | – | – | – | – | 1000 to 10000 | ≤ 1000 | ≤ 1000 | ≤ 100
